For 16 compounds, pest or weed control and mortality results are on record in patent US10251394B2, “Molecules having pesticidal utility, and intermediates, compositions, and processes, related thereto” (Dow AgroSciences LLC, priority 2016, dated 2019).

The subject of test [1] is Cabbage Looper (Trichoplusia ni). In words: Bioassay on Cabbage Looper (CL), 128-well diet tray assay. To be noted: for pest or weed control at 50 µg/cm2: Cabbage Looper, Table ABC, read-out: CL rating; for mortality at 0.05 µg/cm2 / mortality at 0.5 µg/cm2 / mortality at 5 µg/cm2: 168 h, second instar larvae, five to seven days, read-out: CL Percent control (or mortality); for mortality at 0.05 µg/cm2: 0.05 μg/cm^2 on artificial diet; for mortality at 0.5 µg/cm2: 0.5 μg/cm^2 on artificial diet; for mortality at 5 µg/cm2: 5 μg/cm^2 on artificial diet. The class given is in vivo. As for the experimental part:
(§1) Example A: Bioassays on Beet Armyworm (Spodoptera Exigua, LAPHEG) (“BAW”), Corn Earworm (Helicoverpa Zea, HELIZE) (“CEW”), and Cabbage Looper (Trichoplusia Ni, TRIPNI) (“CL”)
(§2) Certain molecules disclosed in this document were tested against BAW, CEW, and CL using procedures described in the following examples. In the reporting of the results, the “BAW, CEW, & CL Rating Table” was used (See Table Section).
Bioassays on CL were conducted using a 128-well diet tray assay. One to five second instar CL larvae were placed in each well (3 mL) of the diet tray that had been previously filled with 1 mL of artificial diet to which 50 μg/cm^2 of the test molecule (dissolved in 50 μL of 90:10 acetone-water mixture) had been applied (to each of eight wells) and then allowed to dry. Trays were covered with a clear self-adhesive cover and held at 25° C., 14:10 light-dark for five to seven days. Percent mortality was recorded for the larvae in each well; activity in the eight wells was then averaged. The results are indicated in the table entitled “Table ABC: Biological Results” (See Table Section).
(§3) Bioassays on BAW and CL were conducted according to the procedures outlined in Example A: Bioassays on Beet Armyworm (“BAW”) and Cabbage Looper (“CL”) using the indicated concentrations.

Test [2] deals with Beet Armyworm (Spodoptera exigua). Kind of test: Bioassay on Beet Armyworm (BAW), 128-well diet tray assay. The class given is in vivo. To be noted: for pest or weed control at 50 µg/cm2: Beet Armyworm, Table ABC, read-out: BAW rating; for mortality at 0.05 µg/cm2 / mortality at 0.5 µg/cm2 / mortality at 5 µg/cm2: 168 h, second instar larvae, five to seven days, read-out: BAW Percent control (or mortality); for mortality at 0.05 µg/cm2: 0.05 μg/cm^2 on artificial diet; for mortality at 0.5 µg/cm2: 0.5 μg/cm^2 on artificial diet; for mortality at 5 µg/cm2: 5 μg/cm^2 on artificial diet. The protocol: as §1, §2
Bioassays on BAW were conducted using a 128-well diet tray assay. One to five second instar BAW larvae were placed in each well (3 mL) of the diet tray that had been previously filled with 1 mL of artificial diet to which 50 μg/cm^2 of the test molecule (dissolved in 50 μL of 90:10 acetone-water mixture) had been applied (to each of eight wells) and then allowed to dry. Trays were covered with a clear self-adhesive cover and held at 25° C., 14:10 light-dark for five to seven days. Percent mortality was recorded for the larvae in each well; activity in the eight wells was then averaged. The results are indicated in the table entitled “Table ABC: Biological Results” (See Table Section).
as §3

For `CCCCNC(=O)[C@@H](C)NC(=O)c1ccc(/C(F)=C/C(c2cc(Cl)c(Cl)c(Cl)c2)C(F)(F)F)cc1C(F)(F)F` (stereo partly drawn) [F16, N—((R)-1-(Butylamino)-1-oxopropan-2-yl)-4-((Z)-1,4,4,4-tetrafluoro-3-(3,4,5-trichlorophenyl)but-1-en-1-yl)-2-(trifluoromethyl)benzamide], the pest or weed control at 50 µg/cm2 in test [1] and in test [2] was 50 to 100% throughout.

Regarding `C[C@@H](NC(=O)c1ccc(/C(F)=C\C(c2cc(Cl)c(Cl)c(Cl)c2)C(F)(F)F)cc1C(F)(F)F)C(=O)NCC(F)(F)F` (stereo partly drawn) [F17, N—((R)-1-oxo-1-((2,2,2-trifluoroethyl)amino)propan-2-yl)-4-((E)-1,4,4,4-tetrafluoro-3-(3,4,5-trichlorophenyl)but-1-en-1-yl)-2-(trifluoromethyl)benzamide], the pest or weed control at 50 µg/cm2 in test [1] and in test [2] was 50 to 100% each time.

With `C[C@@H](NC(=O)c1ccc(/C(F)=C/C(c2cc(Cl)c(Cl)c(Cl)c2)C(F)(F)F)cc1Br)C(=O)NCC(F)(F)F` (stereo partly drawn) [F18, 2-Bromo-N—((R)-1-oxo-1-((2,2,2-trifluoroethyl)amino)propan-2-yl)-4-((Z)-1,4,4,4-tetrafluoro-3-(3,4,5-trichlorophenyl)but-1-en-1-yl)benzamide], in test [1], the mortality at 0.05 µg/cm2 stood at 100%, the mortality at 0.5 µg/cm2 worked out at 100%, the mortality at 5 µg/cm2 was 100% and the pest or weed control at 50 µg/cm2 fell in the range of 50 to 100%. In addition, in test [2], the mortality at 0.05 µg/cm2 came out at 100%, the mortality at 0.5 µg/cm2 stood at 100%, the mortality at 5 µg/cm2 was 100% and the pest or weed control at 50 µg/cm2 lay in the range of 50 to 100%.

Take `O=C(CNC(=O)c1ccc(/C(F)=C/C(c2cc(Cl)c(Cl)c(Cl)c2)C(F)(F)F)cc1Br)NCC(F)(F)F` (centres unmarked) [F19, (Z)-2-Bromo-N-(2-oxo-2-((2,2,2-trifluoroethyl)amino)ethyl)-4-(1,4,4,4-tetrafluoro-3-(3,4,5-trichlorophenyl)but-1-en-1-yl)benzamide]: in test [1], the mortality at 0.05 µg/cm2 turned out to be 100%, the mortality at 0.5 µg/cm2 was 100%, the mortality at 5 µg/cm2 worked out at 100% and the pest or weed control at 50 µg/cm2 lay within 50 to 100%. Besides, in test [2], the mortality at 0.05 µg/cm2 worked out at 100%, the mortality at 0.5 µg/cm2 turned out to be 100%, the mortality at 5 µg/cm2 was 100% and the pest or weed control at 50 µg/cm2 fell in the range of 50 to 100%.

Turning to `CCN(CC(F)(F)F)C(=O)[C@@H](C)NC(=O)c1ccc(/C(F)=C/C(c2cc(Cl)c(Cl)c(Cl)c2)C(F)(F)F)cc1C(F)(F)F` (stereo partly drawn) [F20, N—((R)-1-(Ethyl(2,2,2-trifluoroethyl)amino)-1-oxopropan-2-yl)-4-((Z)-1,4,4,4-tetrafluoro-3-(3,4,5-trichlorophenyl)but-1-en-1-yl)-2-(trifluoromethyl)benzamide], the pest or weed control at 50 µg/cm2 in test [1] and in test [2] was 50 to 100% each time.

In the case of `O=C(NC1(C(=O)NCC(F)(F)F)CC1)c1ccc(/C(F)=C/C(c2cc(Cl)c(Cl)c(Cl)c2)C(F)(F)F)cc1Br` (centres unmarked) [F21, (Z)-2-Bromo-4-(1,4,4,4-tetrafluoro-3-(3,4,5-trichlorophenyl)but-1-en-1-yl)-N-(1-((2,2,2-trifluoroethyl)carbamoyl)cyclopropyl)benzamide], the pest or weed control at 50 µg/cm2 in test [1] and in test [2] was 50 to 100% throughout.

As for `O=C(CNC(=O)c1ccc(/C(F)=C/C(c2cc(Cl)c(Cl)c(Cl)c2)C(F)(F)F)cc1Cl)NCC(F)(F)F` (centres unmarked) [F22, (Z)-2-Chloro-N-(2-oxo-2-((2,2,2-trifluoroethyl)amino)ethyl)-4-(1,4,4,4-tetrafluoro-3-(3,4,5-trichlorophenyl)but-1-en-1-yl)benzamide], in test [1], the mortality at 0.05 µg/cm2 is 100%, the mortality at 0.5 µg/cm2 was determined as 100%, the mortality at 5 µg/cm2 is 100% and the pest or weed control at 50 µg/cm2 was 50 to 100%. Moreover, in test [2], the mortality at 0.05 µg/cm2 came to 100%, the mortality at 0.5 µg/cm2 was 100%, the mortality at 5 µg/cm2 stood at 100% and the pest or weed control at 50 µg/cm2 is 50 to 100%.

Consider `C[C@@H](NC(=O)c1ccc(/C(F)=C/C(c2cc(Cl)c(Cl)c(Cl)c2)C(F)(F)F)cc1Cl)C(=O)NCC(F)(F)F` (stereo partly drawn) [F23, 2-Chloro-N—((R)-1-oxo-1-((2,2,2-trifluoroethyl)amino)propan-2-yl)-4-((Z)-1,4,4,4-tetrafluoro-3-(3,4,5-trichlorophenyl)but-1-en-1-yl)benzamide], for which, in test [1], the mortality at 0.05 µg/cm2 came to 100%, the mortality at 0.5 µg/cm2 turned out to be 100%, the mortality at 5 µg/cm2 came out at 100% and the pest or weed control at 50 µg/cm2 fell in the range of 50 to 100%. For the same compound, in test [2], the mortality at 0.05 µg/cm2 turned out to be 81%, the mortality at 0.5 µg/cm2 turned out to be 100%, the mortality at 5 µg/cm2 was 100% and the pest or weed control at 50 µg/cm2 is 50 to 100%.

Consider `CON(CC(F)(F)F)C(=O)[C@@H](C)NC(=O)c1ccc(/C(F)=C/C(c2cc(Cl)c(Cl)c(Cl)c2)C(F)(F)F)cc1C(F)(F)F` (stereo partly drawn) [F24, N—((R)-1-(Methoxy(2,2,2-trifluoroethyl)amino)-1-oxopropan-2-yl)-4-((Z)-1,4,4,4-tetrafluoro-3-(3,4,5-trichlorophenyl)but-1-en-1-yl)-2-(trifluoromethyl)benzamide], for which the pest or weed control at 50 µg/cm2 in test [1] and in test [2] was 50 to 100% throughout.

On to `CCN(CC(F)(F)F)C(=O)[C@@H](C)NC(=O)c1ccc(/C(F)=C/C(c2cc(Cl)c(Cl)c(Cl)c2)C(F)(F)F)cc1Br` (stereo partly drawn) [F25, 2-Bromo-N—((R)-1-(ethyl(2,2,2-trifluoroethyl)amino)-1-oxopropan-2-yl)-4-((Z)-1,4,4,4-tetrafluoro-3-(3,4,5-trichlorophenyl)but-1-en-1-yl)benzamide], for which the pest or weed control at 50 µg/cm2 in test [1] and in test [2] was 50 to 100% in each case.

`Cc1cc(/C(F)=C/C(c2cc(Cl)c(Cl)c(Cl)c2)C(C)(F)F)ccc1C(=O)N[C@H](C)C(=O)NCC(F)(F)F` (stereo partly drawn) [F26, 2-Methyl-N—((R)-1-oxo-1-((2,2,2-trifluoroethyl)amino)propan-2-yl)-4-((Z)-1,4,4-trifluoro-3-(3,4,5-trichlorophenyl)pent-1-en-1-yl)benzamide]: the pest or weed control at 50 µg/cm2 in test [1] and in test [2] was 50 to 100% in each case.

Consider `C=CCON(CC(F)(F)F)C(=O)[C@@H](C)NC(=O)c1ccc(/C(F)=C/C(c2cc(Cl)c(Cl)c(Cl)c2)C(F)(F)F)cc1C(F)(F)F` (stereo partly drawn) [F27, N—((R)-1-((Allyloxy)(2,2,2-trifluoroethyl)amino)-1-oxopropan-2-yl)-4-((Z)-1,4,4,4-tetrafluoro-3-(3,4,5-trichlorophenyl)but-1-en-1-yl)-2-(trifluoromethyl)benzamide], for which the pest or weed control at 50 µg/cm2 in test [1] and in test [2] was 50 to 100% in each case.

Consider `O=C(NC1(C(=O)NCC(F)(F)F)CC1)c1ccc(/C(F)=C/C(c2cc(Cl)c(Cl)c(Cl)c2)C(F)(F)F)cc1Cl` (centres unmarked) [F28, (Z)-2-Chloro-4-(1,4,4,4-tetrafluoro-3-(3,4,5-trichlorophenyl)but-1-en-1-yl)-N-(1-((2,2,2-trifluoroethyl)carbamoyl)cyclopropyl)benzamide], for which the pest or weed control at 50 µg/cm2 in test [1] and in test [2] was 50 to 100% in each case.

As to `C[C@@H](NC(=O)c1ccc(/C(F)=C/C(c2cc(Cl)c(Cl)c(Cl)c2)C(C)(F)F)cc1C(F)(F)F)C(=O)NCC(F)(F)F` (stereo partly drawn) [F29, N—((R)-1-Oxo-1-((2,2,2-trifluoroethyl)amino)propan-2-yl)-4-((Z)-1,4,4-trifluoro-3-(3,4,5-trichlorophenyl)pent-1-en-1-yl)-2-(trifluoromethyl)benzamide], the pest or weed control at 50 µg/cm2 in test [1] and in test [2] was 50 to 100% in each case.

`C[C@@H](NC(=O)c1ccc(/C(F)=C/C(c2cc(Cl)c(Cl)c(Cl)c2)C(F)(F)F)cc1C(F)(F)F)C(=O)NCC(F)F` (stereo partly drawn) [F30, N—((R)-1-((2,2-Difluoroethyl)amino)-1-oxopropan-2-yl)-4-((Z)-1,4,4,4-tetrafluoro-3-(3,4,5-trichlorophenyl)but-1-en-1-yl)-2-(trifluoromethyl)benzamide]: the pest or weed control at 50 µg/cm2 in test [1] and in test [2] was 50 to 100% each time.

Regarding `C[C@@H](NC(=O)c1ccc(/C(F)=C/C(c2cc(Cl)c(Cl)c(Cl)c2)C(F)(F)F)cc1Br)C(=O)NCC(F)F` (stereo partly drawn) [F31, 2-Bromo-N—((R)-1-((2,2-difluoroethyl)amino)-1-oxopropan-2-yl)-4-((Z)-1,4,4,4-tetrafluoro-3-(3,4,5-trichlorophenyl)but-1-en-1-yl)benzamide], the pest or weed control at 50 µg/cm2 in test [1] and in test [2] was 50 to 100% each time.

By mortality is commonly meant the percentage killed.
